# Patent publication US4555519A, “Thromboxane synthetase enzyme inhibiting N-[(1H-imidazol-1-yl) and (1H-1,2,4-triazol-1-yl)alkyl]pyridinecarboxamides” (American Cyanamid Company, priority 1984, dated 1985)
# Assays:
# [1] = molecular target: T1, thromboxane synthetase enzyme (Rattus norvegicus, UniProt P49430); test: inhibition of thromboxane (TXA2) formation, TXB2 determined by direct radioimmunoassay in washed rat platelets; type: cell-based, Okamoto-Aoki spontaneously hypertensive rats (SHR); settings: Dose 10^-4 M; SHR platelets, 10 minutes at 37° C.
# T1 construct: endogenous in cells; host or cells: washed platelets from arterial blood of Okamoto-Aoki spontaneously hypertensive rats (Taconic Farms, Germantown, NY)
# T1 sequence (P49430 1-533): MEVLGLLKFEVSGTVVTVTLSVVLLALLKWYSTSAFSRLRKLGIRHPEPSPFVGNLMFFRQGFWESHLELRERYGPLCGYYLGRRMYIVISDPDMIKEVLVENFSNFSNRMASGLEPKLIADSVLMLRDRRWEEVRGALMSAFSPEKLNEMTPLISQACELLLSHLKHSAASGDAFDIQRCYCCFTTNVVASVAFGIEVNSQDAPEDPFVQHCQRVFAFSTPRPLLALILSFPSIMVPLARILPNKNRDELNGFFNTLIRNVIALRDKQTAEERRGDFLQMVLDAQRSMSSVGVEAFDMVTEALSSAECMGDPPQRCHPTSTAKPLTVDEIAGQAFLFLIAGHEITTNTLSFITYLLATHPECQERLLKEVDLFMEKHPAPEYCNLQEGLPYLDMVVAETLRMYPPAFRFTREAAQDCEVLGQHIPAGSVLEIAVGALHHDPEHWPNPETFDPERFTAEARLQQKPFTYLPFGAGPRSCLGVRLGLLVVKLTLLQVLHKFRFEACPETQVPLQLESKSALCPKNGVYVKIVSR
# Experimental: The inhibition of thromboxane (TXA2) formation was studied by determining the concentration of thromboxane B2 (TXB2), the stable hydrolysis product of TXA2.
# Under urethan anesthesia, […] of arterial blood was collected in one ml of 3.2% sodium citrate in a polystyrene tube from Okamoto-Aoki spontaneously hypertensive rats (SHR) (Taconic Farms, Germantown, NY) between 19 and 24 weeks in age. The blood was diluted with 3 ml cold saline and centrifuged at room temperature for 15 minutes at 460 xg. The platelet rich plasma (PRP) was separated. The platelets were isolated by centrifuging the PRP for 10 minutes at 1060 xg and were washed in 4 ml cold oxygenated Krebs phosphate buffer, pH 7.4. The chilled platelets recovered from centrifuging at 800 xg for 10 minutes were resuspended in oxygenated Krebs phosphate buffer and diluted to contain 4.5-6.0×10^4 platelets/μl. Assay samples, prepared on ice, contained 200 μl platelet suspension, 50 μl saline, and 50 μl vehicle or drug under study (OKY-1581, UK-37248-01, 1-benzylimidazole, or indomethacin). The samples were incubated for 10 minutes at 37° C. in a metabolic shaker. The reaction was terminated by immersing the tubes in an ice bath and adding 50 μl of 0.5M citric acid. The samples were centrifuged for 10 minutes in a refrigerated centrifuge and the supernatants thus obtained were decanted and stored at -20° C. The TXB2 content for each sample was determined by a direct radioimmunoassay (RIA) utilizing a TXB2 specific RIA kit purchased from New England Nuclear, Boston, Mass. and expressed as pg TXB2 formed minute^-1 sample^-1, from which the percent inhibition of TXB2 formation was calculated.
# [2] = hypotensive activity in spontaneously hypertensive rats, mean arterial blood pressure (method of Chan and Poorvin); type: in vivo; settings: gavage, 100 mg/kg or less, two doses 24 hours apart; measured 28 hours after initial dose; average MABP of rats used 160±1.5 mm Hg; (no. of rats) in parentheses
# Experimental: The novel compounds of the present invention also are active antihypertensive agents and were tested for hypotensive activity by the method of P. S. Chan and D. Poorvin, Clinical and Experimental Hypertension, 1 (6), 817-830 (1979). Male, 16 week old, spontaneously hypertensive rats of the Okamoto strain, from Taconic Farms, Germantown, N.Y., having an average mean arterial blood pressure of 160±1.5 mm of mercury are used in the test. One to three rats are used per test compound. A rat is dosed by gavage with a test compound, suspended in 2% pre-boiled starch at a concentration of 50 mg/ml, at a dose of 100 mg/kg of body weight or less with 0.9% sodium chloride loading at a dose of 25 ml/kg of body weight. A second identical dose of the test compound without sodium chloride loading is given 24 hours later. At 28 hours after the initial dose the mean arterial blood pressure is measured by the method of Chan and Poorvin vide supra. The procedure is repeated in a second and third rat when necessary.
compound,measurement,setting,value
O=C(NCCCn1ccnc1)c1cccnc1Cl [2-Chloro-N--[3-(1H--imidazol-1-yl)propyl]-3-pyridinecarboxamide],inhibition at 100 µM,[1],58%
Cc1cn(CCCNC(=O)c2cccnc2Cl)cn1 [2-Chloro-N--[3-(4-methyl-1H--imidazol-1-yl)propyl]-3-pyridinecarboxamide],inhibition at 100 µM,[1],50%
O=C(NCCCCn1ccnc1)c1cccnc1Cl [2-Chloro-N--[4-(1H--imidazol-1-yl)butyl]-3-pyridinecarboxamide],inhibition at 100 µM,[1],90%
Cc1nccn1CCCNC(=O)c1cccnc1Cl [2-Chloro-N-[3-(2-methyl-1H-imidazol-1-yl)propyl]-3-pyridinecarboxamide],inhibition at 100 µM,[1],38%
O=C(NCCCn1ccnc1)c1ccc(Cl)nc1 [6-Chloro-N--[3-(1H--imidazol-1-yl)propyl]-3-pyridinecarboxamide],inhibition at 100 µM,[1],88%
same,MABP in mm Hg,[2],132 mm Hg
O=C(NCCCCn1ccnc1)c1ccc(Cl)nc1 [6-Chloro-N--[4-(1H--imidazol-1-yl)butyl]-3-pyridinecarboxamide],inhibition at 100 µM,[1],94%
"O=C(NCCCn1cncn1)c1ccc(Cl)nc1 [6-Chloro-N-[3-(1H-1,2,4-triazol-1-yl)propyl]-3-pyridinecarboxamide]",inhibition at 100 µM,[1],67%
same,MABP in mm Hg,[2],140 mm Hg
CC(CNC(=O)c1ccc(Cl)nc1)Cn1ccnc1 (stereo not shown) [6-Chloro-N-[3-(1H-imidazol-1-yl)-2-methylpropyl]-3-pyridinecarboxamide],inhibition at 100 µM,[1],98%
same,MABP in mm Hg,[2],129 mm Hg
CC(CCNC(=O)c1ccc(Cl)nc1)n1ccnc1 (stereo not shown) [6-Chloro-N-[3-(1H-imidazol-1-yl)butyl]-3-pyridinecarboxamide],inhibition at 100 µM,[1],98%
same,MABP in mm Hg,[2],111 mm Hg
Cc1nccn1CCCNC(=O)c1ccc(Cl)nc1 [6-Chloro-N-[3-(2-methyl-1H-imidazol-1-yl)propyl]-3-pyridinecarboxamide],inhibition at 100 µM,[1],44%
O=C(NCCCn1ccnc1-c1ccccc1)c1ccc(Cl)nc1 [6-Chloro-N-[3-(2-phenyl-1H-imidazol-1-yl)propyl]-3-pyridinecarboxamide],inhibition at 100 µM,[1],56%
Cc1cn(CCCNC(=O)c2ccc(Cl)nc2)cn1 [6-Chloro-N-[3-(4-methyl-1H-imidazol-1-yl)propyl]-3-pyridinecarboxamide],inhibition at 100 µM,[1],86%
same,MABP in mm Hg,[2],139 mm Hg
O=C(NCCCn1ccnc1)c1cccnc1 [N--[3-(1H--Imidazol-1-yl)propyl]-3-pyridinecarboxamide],inhibition at 100 µM,[1],83%
same,MABP in mm Hg,[2],138 mm Hg
Cc1cn(CCCNC(=O)c2ccccn2)cn1 [N--[3-(4-Methyl-1H--imidazol-1-yl)propyl]-2-pyridinecarboxamide],inhibition at 100 µM,[1],84%
same,MABP in mm Hg,[2],140 mm Hg
Cc1cn(CCCNC(=O)c2cccnc2)cn1 [N--[3-(4-Methyl-1H--imidazol-1-yl)propyl]-3-pyridinecarboxamide],inhibition at 100 µM,[1],50%
same,MABP in mm Hg,[2],123 mm Hg
O=C(NCCCn1ccnc1)c1ccccn1 [N-[3-(1H-Imidazol-1-yl)propyl]-2-pyridinecarboxamide],inhibition at 100 µM,[1],59%
same,MABP in mm Hg,[2],127 mm Hg
O=C(NCCCn1ccnc1-c1ccccc1)c1ccccn1 [N-[3-(2-Phenyl-1H-imidazol-1-yl)propyl]-2-pyridinecarboxamide],inhibition at 100 µM,[1],30%
"O=C(NCCCCn1ccnc1)c1ccccn1.O=C(O)/C=C/C(=O)O [N-[4-(1H-Imidazol-1-yl)butyl]-2-pyridinecarboxamide, fumarate]",inhibition at 100 µM,[1],82%
same,MABP in mm Hg,[2],116 mm Hg
